Experimental data from ChEMBL document CHEMBL1130125, “beta-Methylation of the Phe7 and Trp9 melanotropin side chain pharmacophores affects ligand-receptor interactions and prolonged biological activity” (J Med Chem, 1997).

Assays:
[1] = Decrease in lizard skin reflectivity ([…] activity).; assay type: functional
[2] = molecular target: frog skin melanocortin receptor (Rana pipiens); experiment: Decrease in frog skin reflectivity ([…] activity).
lizard = experiment: Relative potency compared to alpha MSH in a lizard skin bioassay.; assay type: functional
[3] = system: frog skin melanocortin receptor (Rana pipiens); experiment: Relative potency compared to alpha MSH in a frog skin bioassay.

Compound	EC50 [1] [nM]	EC50 [2] [nM]	Relative potency (lizard)	Relative potency [3]
CCCC[C@H](NC(C)=O)C(=O)N[C@H]1CC(=O)NCCCCC(C(N)=O)NC(=O)[C@H](Cc2c[nH]c3ccccc23)NC(=O)[C@H](CCCN=C(N)N)NC(=O)[C@@H]([C@H](C)c2ccccc2)NC(=O)[C@H](Cc2c[nH]cn2)NC1=O (single isomer, unassigned; 7) [listing 1 of 2 here]	20	16.7		
CCCC[C@H](NC(C)=O)C(=O)N[C@H]1CC(=O)NCCCC[C@@H](C(N)=O)NC(=O)[C@@H]2Cc3c([nH]c4ccccc34)CN2C(=O)[C@H](CCCNC(=N)N)NC(=O)[C@@H](Cc2ccccc2)NC(=O)[C@H](Cc2cnc[nH]2)NC1=O	20	3.33		
CCCC[C@H](NC(=O)[C@H](CO)NC(=O)[C@H](Cc1ccc(O)cc1)NC(=O)[C@H](CO)NC(C)=O)C(=O)N[C@@H](CCC(=O)O)C(=O)N[C@@H](Cc1c[nH]cn1)C(=O)N[C@@H](C(=O)N[C@@H](CCCN=C(N)N)C(=O)N[C@@H](Cc1c[nH]c2ccccc12)C(=O)NCC(=O)N[C@@H](CCCCN)C(=O)N1CCC[C@H]1C(=O)N[C@H](C(N)=O)C(C)C)[C@@H](C)c1ccccc1 (stereo in doubt; 17)	1			
CCCC[C@H](NC(=O)[C@H](CO)NC(=O)[C@H](Cc1ccc(O)cc1)NC(=O)[C@H](CO)NC(C)=O)C(=O)N[C@@H](CCC(=O)O)C(=O)N[C@@H](Cc1c[nH]cn1)C(=O)N[C@@H](C(=O)N[C@@H](CCCN=C(N)N)C(=O)N[C@@H](Cc1c[nH]c2ccccc12)C(=O)NCC(=O)N[C@@H](CCCCN)C(=O)N1CCC[C@H]1C(=O)N[C@H](C(N)=O)C(C)C)[C@@H](C)c1ccccc1 (stereo in doubt; 16)	0.5			
CCCC[C@H](NC(C)=O)C(=O)N[C@H]1CC(=O)NCCCCC(C(N)=O)NC(=O)C([C@H](C)c2c[nH]c3ccccc23)NC(=O)[C@H](CCCN=C(N)N)NC(=O)C(Cc2ccccc2)NC(=O)[C@H](Cc2c[nH]cn2)NC1=O (single isomer, unassigned; 10) [listing 1 of 2 here]			0.7	1.6
CCCC[C@H](NC(C)=O)C(=O)N[C@H]1CC(=O)NCCCCC(C(N)=O)NC(=O)[C@H](Cc2c[nH]c3ccccc23)NC(=O)[C@H](CCCN=C(N)N)NC(=O)[C@@H]([C@@H](C)c2ccccc2)NC(=O)[C@H](Cc2c[nH]cn2)NC1=O (single isomer, unassigned)	0.3	2	3.3	0.05
CCCC[C@H](NC(C)=O)C(=O)N[C@H]1CC(=O)NCCCCC(C(N)=O)NC(=O)[C@H](Cc2c[nH]c3ccccc23)NC(=O)[C@H](CCCN=C(N)N)NC(=O)[C@@H]([C@H](C)c2ccccc2)NC(=O)[C@H](Cc2c[nH]cn2)NC1=O (single isomer, unassigned; 7) [listing 2 of 2 here]			0.05	0.006
CCCC[C@H](NC(=O)[C@H](CO)NC(=O)[C@H](Cc1ccc(O)cc1)NC(=O)[C@H](CO)NC(C)=O)C(=O)N[C@@H](CCC(=O)O)C(=O)N[C@@H](Cc1c[nH]cn1)C(=O)N[C@H](C(=O)N[C@@H](CCCN=C(N)N)C(=O)N[C@@H](Cc1c[nH]c2ccccc12)C(=O)NCC(=O)N[C@@H](CCCCN)C(=O)N1CCC[C@H]1C(=O)N[C@H](C(N)=O)C(C)C)[C@H](C)c1ccccc1	1			
CCCC[C@H](NC(C)=O)C(=O)N[C@H]1CC(=O)NCCCCC(C(N)=O)NC(=O)[C@H]([C@H](C)c2c[nH]c3ccccc23)NC(=O)[C@H](CCCN=C(N)N)NC(=O)C(Cc2ccccc2)NC(=O)[C@H](Cc2c[nH]cn2)NC1=O (single isomer, unassigned)	6.67		0.15	0.004
CCCC[C@H](NC(C)=O)C(=O)N[C@H]1CC(=O)NCCCC[C@@H](C(N)=O)NC(=O)[C@H]2Cc3c([nH]c4ccccc34)CN2C(=O)[C@H](CCCNC(=N)N)NC(=O)[C@@H](Cc2ccccc2)NC(=O)[C@H](Cc2cnc[nH]2)NC1=O	11.1	1		
CCCC[C@H](NC(C)=O)C(=O)N[C@H]1CC(=O)NCCCCC(C(N)=O)NC(=O)[C@H](Cc2c[nH]c3ccccc23)NC(=O)[C@H](CCCN=C(N)N)NC(=O)[C@@H]([C@H](C)c2ccccc2)NC(=O)[C@H](Cc2c[nH]cn2)NC1=O (single isomer, unassigned; 5) [listing 1 of 2 here]	0.2	6.25		
CCCC[C@H](NC(C)=O)C(=O)N[C@H]1CC(=O)NCCCCC(C(N)=O)NC(=O)C([C@H](C)c2c[nH]c3ccccc23)NC(=O)[C@H](CCCN=C(N)N)NC(=O)C(Cc2ccccc2)NC(=O)[C@H](Cc2c[nH]cn2)NC1=O (single isomer, unassigned; 11) [listing 1 of 2 here]			1	0.3
CCCC[C@H](NC(C)=O)C(=O)N[C@H]1CC(=O)NCCCCC(C(N)=O)NC(=O)C([C@H](C)c2c[nH]c3ccccc23)NC(=O)[C@H](CCCN=C(N)N)NC(=O)C(Cc2ccccc2)NC(=O)[C@H](Cc2c[nH]cn2)NC1=O (single isomer, unassigned; 10) [listing 2 of 2 here]	1.43	0.06		
CCCC[C@H](NC(C)=O)C(=O)N[C@H]1CC(=O)NCCCCC(C(N)=O)NC(=O)[C@H](Cc2c[nH]c3ccccc23)NC(=O)[C@H](CCCN=C(N)N)NC(=O)C([C@@H](C)c2ccccc2)NC(=O)[C@H](Cc2c[nH]cn2)NC1=O (single isomer, unassigned)	3.44	6.25	0.29	0.016
CCCC[C@H](NC(C)=O)C(=O)N[C@H]1CC(=O)NCCCC[C@@H](C(N)=O)NC(=O)[C@H]([C@@H](C)c2c[nH]c3ccccc23)NC(=O)[C@H](CCCN=C(N)N)NC(=O)[C@@H](Cc2ccccc2)NC(=O)[C@H](Cc2c[nH]cn2)NC1=O	1			
CCCC[C@H](NC(C)=O)C(=O)N[C@H]1CC(=O)NCCCC[C@H](C(N)=O)NC(=O)[C@H]([C@@H](C)c2c[nH]c3ccccc23)NC(=O)[C@H](CCCN=C(N)N)NC(=O)[C@@H](Cc2ccccc2)NC(=O)[C@H](Cc2c[nH]cn2)NC1=O			1	0.23
CCCC[C@H](NC(C)=O)C(=O)N[C@H]1CC(=O)NCCCCC(C(N)=O)NC(=O)C([C@H](C)c2c[nH]c3ccccc23)NC(=O)[C@H](CCCN=C(N)N)NC(=O)C(Cc2ccccc2)NC(=O)[C@H](Cc2c[nH]cn2)NC1=O (single isomer, unassigned; 11) [listing 2 of 2 here]	1	0.33		
CCCC[C@H](NC(=O)[C@H](CO)NC(=O)[C@H](Cc1ccc(O)cc1)NC(=O)[C@H](CO)NC(C)=O)C(=O)N[C@@H](CCC(=O)O)C(=O)N[C@@H](Cc1c[nH]cn1)C(=O)N[C@H](C(=O)N[C@@H](CCCN=C(N)N)C(=O)N[C@@H](Cc1c[nH]c2ccccc12)C(=O)NCC(=O)N[C@@H](CCCCN)C(=O)N1CCC[C@H]1C(=O)N[C@H](C(N)=O)C(C)C)[C@@H](C)c1ccccc1	3.33			
CCCC[C@H](NC(C)=O)C(=O)N[C@H]1CC(=O)NCCCCC(C(N)=O)NC(=O)[C@H](Cc2c[nH]c3ccccc23)NC(=O)[C@H](CCCN=C(N)N)NC(=O)[C@@H]([C@H](C)c2ccccc2)NC(=O)[C@H](Cc2c[nH]cn2)NC1=O (single isomer, unassigned; 5) [listing 2 of 2 here]			5	0.016
